Measured values published in paper doi:10.1101/2021.04.08.439011v1 (biorxiv, 2021).
Read-outs that look alike come from different tables or passages of the source.

Experiments:
ABL1(H396P) = ABL1(H396P) (Homo sapiens, UniProt P00519, H396P); conditions: 1 µM, binder
ACVR2B = ACVR2B (Homo sapiens, UniProt Q13705); conditions: 1 µM; binder
AMPK-alpha2 = AMPK-alpha2 (Homo sapiens, UniProt P54646); conditions: 1 µM; binder
CAMK1D = CAMK1D (Homo sapiens, UniProt Q8IU85); conditions: 1 µM; binder
CDC42BPG = CDC42BPG (Homo sapiens, UniProt Q6DT37); conditions: 1 µM; binder
CDKL3 = CDKL3 (Homo sapiens, UniProt Q8IVW4); conditions: 1 µM; binder
EGFR(G719C) = EGFR(G719C) (Homo sapiens, UniProt P00533, G719C); conditions: 1 µM; binder
EPHA6 = EPHA6 (Homo sapiens, UniProt Q9UF33); conditions: 1 µM; binder
ERBB2 = ERBB2 (Homo sapiens, UniProt P04626); conditions: 1 µM; binder
ERK5 = ERK5 (Homo sapiens, UniProt Q13164); conditions: 1 µM; binder
ICK = ICK (Homo sapiens, UniProt Q9UPZ9); conditions: 1 µM; binder
JAK3 = JAK3 (Homo sapiens, UniProt P52333); conditions: JH1 domain catalytic; binder
LYN = LYN (Homo sapiens, UniProt P07948); conditions: 1 µM; binder
MAK = MAK (Homo sapiens, UniProt P20794); conditions: 1 µM; binder
MAP3K14 = MAP3K14 (Homo sapiens, UniProt Q99558); conditions: 1 µM; binder
MAP4K3 = MAP4K3 (Homo sapiens, UniProt Q8IVH8); conditions: 1 µM; binder
MAPKAPK5 = MAPKAPK5 (Homo sapiens, UniProt Q8IW41); conditions: 1 µM; binder
MEK2 = MEK2 (Homo sapiens, UniProt P36507); conditions: 1 µM; binder
MET = MET (Homo sapiens, UniProt P08581); conditions: 1 µM; binder
MRCKB = MRCKB (Homo sapiens, UniProt Q9Y5S2); conditions: 1 µM; binder
MYO3A = MYO3A (Homo sapiens, UniProt Q8NEV4); conditions: 1 µM; binder
PIK3CA(H1047L) = PIK3CA(H1047L) (Homo sapiens, UniProt P42336, H1047L); conditions: 1 µM; binder
PIM1 = PIM1 (Homo sapiens, UniProt P11309); conditions: 1 µM; binder
PIM2 = PIM2 (Homo sapiens, UniProt Q9P1W9); conditions: 1 µM; binder
PRKCD = PRKCD (Homo sapiens, UniProt Q05655); conditions: 1 µM; binder
ROS1 = ROS1 (Homo sapiens, UniProt P08922); conditions: 1 µM; binder
SRPK2 = SRPK2 (Homo sapiens, UniProt P78362); conditions: 1 µM; binder
TESK1 = TESK1 (Homo sapiens, UniProt Q15569); conditions: 1 µM; binder
WEE1 = WEE1 (Homo sapiens, UniProt P30291); conditions: 1 µM; binder
WNK1 = WNK1 (Homo sapiens, UniProt Q9H4A3); conditions: 1 µM; binder

JAK3, sequence (P52333 whole entry, the tested form may be a part): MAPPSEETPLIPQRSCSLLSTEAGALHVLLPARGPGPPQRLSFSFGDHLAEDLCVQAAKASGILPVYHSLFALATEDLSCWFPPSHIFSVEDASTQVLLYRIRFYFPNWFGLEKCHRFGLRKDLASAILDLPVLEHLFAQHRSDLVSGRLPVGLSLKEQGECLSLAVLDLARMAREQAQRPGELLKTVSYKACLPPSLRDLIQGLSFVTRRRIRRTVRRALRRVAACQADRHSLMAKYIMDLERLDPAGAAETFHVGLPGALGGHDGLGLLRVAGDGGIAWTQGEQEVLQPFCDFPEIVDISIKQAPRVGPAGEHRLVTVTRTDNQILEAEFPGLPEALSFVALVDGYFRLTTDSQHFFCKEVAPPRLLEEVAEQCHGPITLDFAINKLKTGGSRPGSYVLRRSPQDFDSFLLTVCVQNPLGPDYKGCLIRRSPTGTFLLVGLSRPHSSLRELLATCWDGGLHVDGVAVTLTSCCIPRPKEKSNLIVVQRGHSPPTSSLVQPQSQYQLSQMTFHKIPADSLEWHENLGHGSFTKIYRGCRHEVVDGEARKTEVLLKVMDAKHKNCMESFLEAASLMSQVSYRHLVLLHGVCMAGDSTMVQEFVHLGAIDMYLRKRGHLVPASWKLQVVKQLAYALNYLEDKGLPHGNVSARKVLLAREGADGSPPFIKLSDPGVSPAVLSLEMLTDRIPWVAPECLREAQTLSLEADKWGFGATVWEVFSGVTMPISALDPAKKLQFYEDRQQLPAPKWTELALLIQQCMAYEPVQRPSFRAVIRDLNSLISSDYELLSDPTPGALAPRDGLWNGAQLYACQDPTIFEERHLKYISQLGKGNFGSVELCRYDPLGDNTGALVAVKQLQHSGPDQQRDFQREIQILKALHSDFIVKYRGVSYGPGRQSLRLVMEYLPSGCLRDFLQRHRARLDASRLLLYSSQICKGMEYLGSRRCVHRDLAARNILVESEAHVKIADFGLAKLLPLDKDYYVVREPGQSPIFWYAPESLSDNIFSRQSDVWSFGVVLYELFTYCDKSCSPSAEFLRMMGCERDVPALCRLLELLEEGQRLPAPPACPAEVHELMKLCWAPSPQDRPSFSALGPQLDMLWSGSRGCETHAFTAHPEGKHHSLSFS
EPHA6, sequence (Q9UF33 whole entry): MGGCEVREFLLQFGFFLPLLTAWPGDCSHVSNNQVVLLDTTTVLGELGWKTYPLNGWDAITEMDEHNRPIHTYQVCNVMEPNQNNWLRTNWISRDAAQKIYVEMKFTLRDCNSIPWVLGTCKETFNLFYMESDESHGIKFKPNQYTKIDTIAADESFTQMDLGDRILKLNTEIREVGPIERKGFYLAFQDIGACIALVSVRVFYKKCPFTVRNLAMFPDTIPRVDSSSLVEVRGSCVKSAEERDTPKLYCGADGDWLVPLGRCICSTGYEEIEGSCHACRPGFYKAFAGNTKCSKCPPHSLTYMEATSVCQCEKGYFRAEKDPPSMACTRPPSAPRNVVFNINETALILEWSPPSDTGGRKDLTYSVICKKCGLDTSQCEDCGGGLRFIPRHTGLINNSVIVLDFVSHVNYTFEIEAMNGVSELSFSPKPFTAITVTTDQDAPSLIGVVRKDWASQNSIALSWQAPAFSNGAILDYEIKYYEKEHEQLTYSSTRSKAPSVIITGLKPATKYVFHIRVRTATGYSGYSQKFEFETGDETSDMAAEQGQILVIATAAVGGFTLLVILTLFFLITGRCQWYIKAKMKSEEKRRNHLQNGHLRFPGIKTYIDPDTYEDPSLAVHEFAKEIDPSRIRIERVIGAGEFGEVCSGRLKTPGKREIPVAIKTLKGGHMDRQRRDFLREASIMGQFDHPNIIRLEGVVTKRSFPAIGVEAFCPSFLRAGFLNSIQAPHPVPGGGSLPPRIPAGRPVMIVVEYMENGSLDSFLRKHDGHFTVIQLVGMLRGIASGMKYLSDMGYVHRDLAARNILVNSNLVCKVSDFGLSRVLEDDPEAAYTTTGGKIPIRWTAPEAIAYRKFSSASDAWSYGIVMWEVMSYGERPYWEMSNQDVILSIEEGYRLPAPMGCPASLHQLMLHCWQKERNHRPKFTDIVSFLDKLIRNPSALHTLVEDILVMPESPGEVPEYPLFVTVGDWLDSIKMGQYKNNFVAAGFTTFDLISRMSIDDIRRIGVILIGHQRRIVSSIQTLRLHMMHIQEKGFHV
CAMK1D, sequence (Q8IU85 whole entry): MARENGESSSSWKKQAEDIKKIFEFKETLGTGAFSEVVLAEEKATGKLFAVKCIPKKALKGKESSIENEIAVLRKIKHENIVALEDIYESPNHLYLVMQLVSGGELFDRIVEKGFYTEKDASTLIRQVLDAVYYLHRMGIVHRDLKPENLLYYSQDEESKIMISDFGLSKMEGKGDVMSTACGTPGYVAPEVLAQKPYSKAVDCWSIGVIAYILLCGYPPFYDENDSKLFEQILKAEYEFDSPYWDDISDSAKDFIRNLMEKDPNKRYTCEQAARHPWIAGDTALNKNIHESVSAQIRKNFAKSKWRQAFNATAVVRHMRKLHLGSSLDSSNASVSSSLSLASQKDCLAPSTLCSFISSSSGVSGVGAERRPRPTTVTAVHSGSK
ACVR2B, sequence (Q13705 whole entry): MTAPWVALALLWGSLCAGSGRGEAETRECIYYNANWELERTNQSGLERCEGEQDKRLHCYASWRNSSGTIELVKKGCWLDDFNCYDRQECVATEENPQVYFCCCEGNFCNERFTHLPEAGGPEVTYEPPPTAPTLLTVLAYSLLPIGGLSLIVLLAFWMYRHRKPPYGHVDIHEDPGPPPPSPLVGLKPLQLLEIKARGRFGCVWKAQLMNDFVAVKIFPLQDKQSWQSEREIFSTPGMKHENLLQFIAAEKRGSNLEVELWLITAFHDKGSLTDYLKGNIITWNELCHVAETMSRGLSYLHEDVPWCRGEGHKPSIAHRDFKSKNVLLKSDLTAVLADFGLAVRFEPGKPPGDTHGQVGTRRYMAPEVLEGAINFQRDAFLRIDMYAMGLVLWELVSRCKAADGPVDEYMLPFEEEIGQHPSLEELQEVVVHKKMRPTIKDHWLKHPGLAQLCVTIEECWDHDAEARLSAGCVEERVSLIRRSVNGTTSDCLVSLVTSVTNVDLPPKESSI
MAK, sequence (P20794 whole entry): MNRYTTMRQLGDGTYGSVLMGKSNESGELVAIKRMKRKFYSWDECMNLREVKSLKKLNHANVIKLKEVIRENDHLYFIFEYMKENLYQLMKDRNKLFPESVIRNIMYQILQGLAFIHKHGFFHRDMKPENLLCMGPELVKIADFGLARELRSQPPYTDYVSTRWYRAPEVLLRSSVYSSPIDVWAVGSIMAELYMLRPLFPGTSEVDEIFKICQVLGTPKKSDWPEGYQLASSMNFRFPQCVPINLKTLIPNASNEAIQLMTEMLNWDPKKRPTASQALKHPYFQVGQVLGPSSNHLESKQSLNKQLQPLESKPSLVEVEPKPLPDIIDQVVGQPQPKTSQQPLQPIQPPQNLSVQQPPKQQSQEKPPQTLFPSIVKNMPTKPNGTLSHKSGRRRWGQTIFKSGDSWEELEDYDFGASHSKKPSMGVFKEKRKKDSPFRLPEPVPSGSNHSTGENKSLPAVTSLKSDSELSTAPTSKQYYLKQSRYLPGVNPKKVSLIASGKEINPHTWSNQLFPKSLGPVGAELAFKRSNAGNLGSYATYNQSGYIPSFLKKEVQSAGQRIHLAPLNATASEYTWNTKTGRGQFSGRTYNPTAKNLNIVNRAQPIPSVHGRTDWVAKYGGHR
PIK3CA(H1047L), sequence (P42336 whole entry H1047L): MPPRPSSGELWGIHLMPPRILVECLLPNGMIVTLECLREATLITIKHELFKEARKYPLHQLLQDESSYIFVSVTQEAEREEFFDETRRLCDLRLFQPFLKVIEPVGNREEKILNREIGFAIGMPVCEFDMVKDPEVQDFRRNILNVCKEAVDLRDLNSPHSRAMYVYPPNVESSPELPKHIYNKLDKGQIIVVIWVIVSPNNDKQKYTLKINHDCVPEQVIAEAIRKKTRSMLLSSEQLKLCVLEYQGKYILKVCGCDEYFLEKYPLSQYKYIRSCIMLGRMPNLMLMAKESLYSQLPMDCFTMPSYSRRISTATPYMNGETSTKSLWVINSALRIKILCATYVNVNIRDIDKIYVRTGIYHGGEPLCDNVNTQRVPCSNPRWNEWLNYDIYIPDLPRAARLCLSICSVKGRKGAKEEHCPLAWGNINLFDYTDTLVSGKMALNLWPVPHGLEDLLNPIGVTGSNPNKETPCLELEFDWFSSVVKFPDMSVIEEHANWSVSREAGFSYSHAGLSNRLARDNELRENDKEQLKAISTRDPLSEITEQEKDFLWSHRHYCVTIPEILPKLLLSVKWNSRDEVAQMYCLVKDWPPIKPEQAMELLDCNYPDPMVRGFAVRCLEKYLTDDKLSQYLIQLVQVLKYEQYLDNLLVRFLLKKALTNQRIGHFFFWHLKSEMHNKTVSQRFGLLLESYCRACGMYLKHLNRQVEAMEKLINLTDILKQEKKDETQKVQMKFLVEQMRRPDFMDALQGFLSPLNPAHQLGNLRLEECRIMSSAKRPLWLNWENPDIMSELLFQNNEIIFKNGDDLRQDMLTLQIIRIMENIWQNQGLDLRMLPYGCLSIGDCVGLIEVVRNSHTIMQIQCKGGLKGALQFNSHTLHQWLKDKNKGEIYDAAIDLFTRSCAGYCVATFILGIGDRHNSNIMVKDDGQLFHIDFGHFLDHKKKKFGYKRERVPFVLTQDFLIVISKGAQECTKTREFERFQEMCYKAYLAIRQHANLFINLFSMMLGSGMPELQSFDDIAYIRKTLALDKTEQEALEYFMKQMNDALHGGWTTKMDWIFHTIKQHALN
PIM2, sequence (Q9P1W9 whole entry): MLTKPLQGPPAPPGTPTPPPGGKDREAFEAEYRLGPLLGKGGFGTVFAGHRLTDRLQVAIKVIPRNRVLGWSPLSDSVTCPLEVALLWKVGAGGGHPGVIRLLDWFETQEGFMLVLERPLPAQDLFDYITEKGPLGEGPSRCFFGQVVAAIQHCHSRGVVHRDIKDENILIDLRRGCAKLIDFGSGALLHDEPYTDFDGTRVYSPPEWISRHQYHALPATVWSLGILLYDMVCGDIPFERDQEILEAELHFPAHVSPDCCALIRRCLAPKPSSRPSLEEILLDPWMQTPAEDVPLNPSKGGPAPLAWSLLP

CNc1ncc2cc(-c3ccc(-c4cccc(C)n4)cc3Cl)c(=O)n(C[C@H]3OC[C@H](N)CO3)c2n1 [compound 6, G-5555]
Percent Control (ABL1(H396P); nonphosphorylated): 56% | Percent Control (ABL1(H396P); phosphorylated): 94% | Percent Control (ACVR2B): 100% | Percent Control (AMPK-alpha2): 47% | Percent Control (CAMK1D): 2.5% | Percent Control (CDC42BPG): 15% | Percent Control (CDKL3): 100% | Percent Control (EGFR(G719C)): 100% | Percent Control (EPHA6): 100% | Percent Control (ERBB2): 100% | Percent Control (ERK5): 52% | Percent Control (ICK): 100% | Percent Control (JAK3): 90% | Percent Control (LYN): 74% | Percent Control (MAK): 100% | Percent Control (MAP3K14): 100% | Percent Control (MAP4K3): 23% | Percent Control (MAPKAPK5): 100% | Percent Control (MEK2): 1.4% | Percent Control (MET): 40% | Percent Control (MRCKB): 5.3% | Percent Control (MYO3A): 96% | Percent Control (PIK3CA(H1047L)): 100% | Percent Control (PIM1): 100% | Percent Control (PIM2): 100% | Percent Control (PRKCD): 100% | Percent Control (ROS1): 100% | Percent Control (SRPK2): 70% | Percent Control (TESK1): 99% | Percent Control (WEE1): 100% | Percent Control (WNK1): 69%
